Numbered stars: 1 amine (or outer) side, 2 acyl side, 3 side chain; on linkers, the order of the positions; unused ones are H or OH. Bridge positions count the residues as written; N and C are the ends. Square brackets hold non-standard residues; d marks the D form. Side chains are listed from the residue outwards. Peptide text beside a SMILES is read from it. I, II: the chains in the order shown. * marks the point of attachment. C18 diacid = O=C(O)CCCCCCCCCCCCCCCCC(=O)*; γGlu = O=C(O)[C@H](CCC(=O)[*:2])N[*:1]; Ac4c = NC1(C(=O)O)CCC1; AEEA = NCCOCCOCC(=O)O; Aib = CC(C)(N)C(=O)O

This assay concerns the target T1, human glucagon receptor (Homo sapiens, UniProt P47871).
T1 construct: expressed in transfected cells; host or cells: BHK cells (parent BHK570, CRE luciferase clone BHK/KZ10-20-48), clone pLJ6'-4-25
Put plainly: Glucagon receptor potency, CRE luciferase reporter gene assay in BHK cells. Format: cell-based. As to conditions: BHK cells expressing human glucagon receptor, read-out: EC50 GlucR. The method, boiled down: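 EC50 (pM) comes from a four-parameter fit of luciferase luminescence after 3 h at 37 °C with compound at final 1×10EE-13–1×10EE-6 M. Cells: BHK570-derived line carrying human glucagon receptor plus CRE-luciferase, 5×10EE3/well, in assay medium with 2% ovalbumin, 0.2% Pluronic F-68.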

T1 sequence (P47871 26-477): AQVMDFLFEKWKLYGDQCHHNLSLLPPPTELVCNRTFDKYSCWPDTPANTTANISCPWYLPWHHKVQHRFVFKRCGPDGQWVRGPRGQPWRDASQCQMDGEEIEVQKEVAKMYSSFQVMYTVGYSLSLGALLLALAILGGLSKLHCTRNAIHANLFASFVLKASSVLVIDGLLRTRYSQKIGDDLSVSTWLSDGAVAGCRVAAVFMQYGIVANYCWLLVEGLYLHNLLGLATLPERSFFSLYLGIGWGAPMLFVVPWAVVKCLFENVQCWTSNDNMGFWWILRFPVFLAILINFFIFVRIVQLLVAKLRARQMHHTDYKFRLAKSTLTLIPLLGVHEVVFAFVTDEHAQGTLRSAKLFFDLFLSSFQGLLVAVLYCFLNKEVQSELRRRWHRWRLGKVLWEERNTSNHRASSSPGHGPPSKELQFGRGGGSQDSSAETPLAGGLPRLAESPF

Broadly, the EC50 is the concentration at which the effect is half-maximal. As for `CC(C)C[C@H](NC(=O)[C@H](Cc1ccc(O)cc1)NC(=O)[C@H](CCCCN)NC(=O)[C@H](CO)NC(=O)[C@H](CC(C)C)NC(=O)[C@H](CC(=O)O)NC(=O)[C@H](CO)NC(=O)[C@@H](NC(=O)[C@H](Cc1ccccc1)NC(=O)[C@@H](NC(=O)CNC(=O)[C@H](Cc1c[nH]cn1)NC(=O)C(C)(C)NC(=O)[C@@H](N)Cc1c[nH]cn1)[C@@H](C)O)[C@@H](C)O)C(=O)N[C@@H](CCC(=O)O)C(=O)N[C@@H](CO)C(=O)N[C@@H](CCCNC(=N)N)C(=O)N[C@@H](CCCNC(=N)N)C(=O)N[C@@H](C)C(=O)N[C@@H](CCCNC(=N)N)C(=O)N[C@@H](CC(=O)O)C(=O)N[C@@H](Cc1ccccc1)C(=O)N[C@H](C(=O)N[C@@H](CCC(N)=O)C(=O)N[C@@H](Cc1c[nH]c2ccccc12)C(=O)N[C@@H](CC(C)C)C(=O)N[C@@H](CC(C)C)C(=O)N[C@@H](CCCCNC(=O)CNC(=O)[C@H](CO)NC(=O)[C@H](CCC(=O)O)NC(=O)CNC(=O)[C@H](CO)NC(=O)CC[C@H](NC(=O)CC[C@H](NC(=O)CCCCCCCCCCCCCCCCC(=O)O)C(=O)O)C(=O)O)C(=O)N[C@H](C(N)=O)[C@@H](C)O)C(C)C` [Example 37, N^ε28-[2-[[(2S)-2-[[(2S)-4-carboxy-2-[[2-[[(2S)-2-[[(4S)-4-carboxy-4-[[(4S)-4-carboxy-4-(17-carboxyheptadecanoylamino)butanoyl]amino]butanoyl]amino]-3-hydroxypropanoyl]amino]acetyl]amino]butanoyl]amino]-3-hydroxypropanoyl]amino]acetyl]-[Aib2,His3,Leu10,Glu15, Arg20,Leu27,Lys28]-Glucagon amide] (I: H-H[Aib]HGTFTSDLSKYLESRRARDFVQWLLKT-NH2 / II: {C18 diacid-γGlu-γGlu}-SGESG; amide I:28-II:C; N-terminus assumed), the EC50 is 0.002 nM.

`CC(C)C[C@H](NC(=O)[C@H](Cc1ccc(O)cc1)NC(=O)[C@H](CCCCN)NC(=O)[C@H](CO)NC(=O)[C@H](CC(C)C)NC(=O)[C@H](CC(=O)O)NC(=O)[C@H](CO)NC(=O)[C@@H](NC(=O)[C@H](Cc1ccccc1)NC(=O)[C@@H](NC(=O)CNC(=O)[C@H](CCC(N)=O)NC(=O)C(C)(C)NC(=O)[C@@H](N)Cc1c[nH]cn1)[C@@H](C)O)[C@@H](C)O)C(=O)N[C@@H](CCC(=O)O)C(=O)N[C@@H](CO)C(=O)N[C@@H](CCCNC(=N)N)C(=O)N[C@@H](CCCNC(=N)N)C(=O)N[C@@H](C)C(=O)N[C@@H](CCCNC(=N)N)C(=O)N[C@@H](CCC(=O)O)C(=O)N[C@@H](Cc1ccccc1)C(=O)N[C@H](C(=O)N[C@@H](CCC(N)=O)C(=O)N[C@@H](Cc1c[nH]c2ccccc12)C(=O)N[C@@H](CC(C)C)C(=O)N[C@@H](CC(C)C)C(=O)N[C@@H](CCCCNC(=O)CC[C@H](NC(=O)CC[C@H](NC(=O)CC[C@H](NC(=O)CCCCCCCCCCCCCCCCC(=O)O)C(=O)O)C(=O)O)C(=O)O)C(=O)N[C@H](C(N)=O)[C@@H](C)O)C(C)C` [Example 41, N^ε28-[(4S)-4-carboxy-4-[[(4S)-4-carboxy-4-[[(4S)-4-carboxy-4-(17-carboxyheptadecanoylamino)butanoyl]amino]butanoyl]amino]butanoyl]-[Aib2,Leu10,Glu15, Arg20,Glu21,Leu27,Lys28]-Glucagon amide] (H-H[Aib]QGTFTSDLSKYLESRRAREFVQWLLK([γGlu-γGlu-γGlu-C18 diacid])T-NH2; N-terminus assumed): the concentration giving a half-maximal response (EC50) stood at 0.029 nM.

As to `CC(C)C[C@H](NC(=O)[C@H](Cc1ccc(O)cc1)NC(=O)[C@H](CCCCN)NC(=O)[C@H](CO)NC(=O)[C@H](CC(C)C)NC(=O)[C@H](CC(=O)O)NC(=O)[C@H](CO)NC(=O)[C@@H](NC(=O)[C@H](Cc1ccccc1)NC(=O)[C@@H](NC(=O)CNC(=O)[C@H](CCC(N)=O)NC(=O)C(C)(C)NC(=O)[C@@H](N)Cc1c[nH]cn1)[C@@H](C)O)[C@@H](C)O)C(=O)N[C@@H](CCC(=O)O)C(=O)N[C@@H](CO)C(=O)N[C@@H](CCCNC(=N)N)C(=O)N[C@@H](CCCNC(=N)N)C(=O)N[C@@H](C)C(=O)N[C@@H](CCCNC(=N)N)C(=O)N[C@@H](CCC(=O)O)C(=O)N[C@@H](Cc1ccccc1)C(=O)N[C@H](C(=O)N[C@@H](CCC(N)=O)C(=O)N[C@@H](Cc1c[nH]c2ccccc12)C(=O)N[C@@H](CC(C)C)C(=O)N[C@@H](CC(C)C)C(=O)N[C@@H](CCCCNC(=O)COCCOCCNC(=O)COCCOCCNC(=O)CC[C@H](NC(=O)CC[C@H](NC(=O)CC[C@H](NC(=O)CCCCCCCCCCCCCCCCC(=O)O)C(=O)O)C(=O)O)C(=O)O)C(=O)N[C@H](C(N)=O)[C@@H](C)O)C(C)C` [Example 42, N^ε28-[2-[2-[2-[[2-[2-[2-[[(4S)-4-carboxy-4-[[(4S)-4-carboxy-4-[[(4S)-4-carboxy-4-(17-carboxyheptadecanoylamino)butanoyl]amino]butanoyl]amino]butanoyl]amino]ethoxy]ethoxy]acetyl]amino]ethoxy]ethoxy]acetyl]-[Aib2,Leu10,Glu15,Arg20,Glu21,Leu27,Lys28]-Glucagon amide] (H-H[Aib]QGTFTSDLSKYLESRRAREFVQWLLK([AEEA-AEEA-γGlu-γGlu-γGlu-C18 diacid])T-NH2; N-terminus assumed), the EC50 is 0.032 nM.

As for `CC(C)C[C@H](NC(=O)[C@H](Cc1ccc(O)cc1)NC(=O)[C@H](CCCCN)NC(=O)[C@H](CO)NC(=O)[C@H](CC(C)C)NC(=O)[C@H](CC(=O)O)NC(=O)[C@H](CO)NC(=O)[C@@H](NC(=O)[C@H](Cc1ccccc1)NC(=O)[C@@H](NC(=O)CNC(=O)[C@H](CCC(N)=O)NC(=O)C(C)(C)NC(=O)[C@@H](N)Cc1c[nH]cn1)[C@@H](C)O)[C@@H](C)O)C(=O)N[C@@H](CC(=O)O)C(=O)N[C@@H](C)C(=O)N[C@@H](CCCNC(=N)N)C(=O)N[C@@H](CCCNC(=N)N)C(=O)N[C@@H](C)C(=O)N[C@@H](CCCNC(=N)N)C(=O)N[C@@H](CCC(=O)O)C(=O)N[C@@H](Cc1ccccc1)C(=O)N[C@H](C(=O)N[C@@H](CCC(N)=O)C(=O)N[C@@H](Cc1c[nH]c2ccccc12)C(=O)N[C@@H](CC(C)C)C(=O)N[C@@H](CC(C)C)C(=O)N[C@@H](CCCCNC(=O)CC[C@H](NC(=O)CC[C@H](NC(=O)COCCOCCNC(=O)COCCOCCNC(=O)CC[C@H](NC(=O)CCCCCCCCCCCCCCCCC(=O)O)C(=O)O)C(=O)O)C(=O)O)C(=O)N[C@H](C(N)=O)[C@@H](C)O)C(C)C` [Example 43, N^ε28-[(4S)-4-carboxy-4-[[(4S)-4-carboxy-4-[[2-[2-[2-[[2-[2-[2-[[(4S)-4-carboxy-4-(17-carboxyheptadecanoylamino)butanoyl]amino]ethoxy]ethoxy]acetyl]amino]ethoxy]ethoxy]acetyl]amino]butanoyl]amino]butanoyl]-[Aib2,Leu10,Ala16,Arg20,Glu21,Leu27,Lys28]-Glucagon amide] (H-H[Aib]QGTFTSDLSKYLDARRAREFVQWLLK([γGlu-γGlu-AEEA-AEEA-γGlu-C18 diacid])T-NH2; N-terminus assumed), the concentration giving a half-maximal response (EC50) came to 0.002 nM.

For the compound `CC(C)C[C@H](NC(=O)[C@H](Cc1ccc(O)cc1)NC(=O)[C@H](CCCCN)NC(=O)[C@H](CO)NC(=O)[C@H](CC(C)C)NC(=O)[C@H](CC(=O)O)NC(=O)[C@H](CO)NC(=O)[C@@H](NC(=O)[C@H](Cc1ccccc1)NC(=O)[C@@H](NC(=O)CNC(=O)[C@H](CCC(N)=O)NC(=O)C1(NC(=O)[C@@H](N)Cc2c[nH]cn2)CCC1)[C@@H](C)O)[C@@H](C)O)C(=O)N[C@@H](CCC(=O)O)C(=O)N[C@@H](CO)C(=O)N[C@@H](CCCNC(=N)N)C(=O)N[C@@H](CCCNC(=N)N)C(=O)N[C@@H](C)C(=O)N[C@@H](CCCNC(=N)N)C(=O)N[C@@H](CCC(=O)O)C(=O)N[C@@H](Cc1ccccc1)C(=O)N[C@H](C(=O)N[C@@H](CCC(N)=O)C(=O)N[C@@H](Cc1c[nH]c2ccccc12)C(=O)N[C@@H](CC(C)C)C(=O)N[C@@H](CC(C)C)C(=O)N[C@@H](CCCCNC(=O)CC[C@H](NC(=O)CC[C@H](NC(=O)COCCOCCNC(=O)COCCOCCNC(=O)CC[C@H](NC(=O)CCCCCCCCCCCCCCCCC(=O)O)C(=O)O)C(=O)O)C(=O)O)C(=O)N[C@H](C(N)=O)[C@@H](C)O)C(C)C` [Example 44, N^ε28-[(4S)-4-carboxy-4-[[(4S)-4-carboxy-4-[[2-[2-[2-[[2-[2-[2-[[(4S)-4-carboxy-4-(17-carboxyheptadecanoylamino)butanoyl]amino]ethoxy]ethoxy]acetyl]amino]ethoxy]ethoxy]acetyl]amino]butanoyl]amino]butanoyl]-[Acb2,Leu10,Glu15,Arg20,Glu21,Leu27,Lys28]-Glucagon amide] (H-H[Ac4c]QGTFTSDLSKYLESRRAREFVQWLLK([γGlu-γGlu-AEEA-AEEA-γGlu-C18 diacid])T-NH2; N-terminus assumed), the EC50 is 0.01 nM.

These data come from patent US9474790B2, “Stable, protracted GLP-1/glucagon receptor co-agonists for medical use” (Novo Nordisk A/S, priority 2013, dated 2016).
